In patent US7064115B2, “(20S)-1α-hydroxy-2α-methyl and 2β-methyl-19-nor-vitamin D3 and their uses” (Wisconsin Alumni Research Foundation, priority 2002, dated 2006):

What was measured:
[1] = Serum calcium (bone calcium mobilization) in rats on low calcium diet, chronic i.p. doses; format: in vivo, Sprague-Dawley rats; design: Serum Ca (mean ± SEM): unit not given here; settings: for Serum Ca (mean ± SEM): male weanling rats, 0.02% Ca diet, 5 animals; for Bone calcium mobilization activity relative to 1,25-(OH)2D3 (in words): summary of Table 1
Description: The in vivo tests to determine serum calcium of rats on a low calcium diet provides an insight to […] or bone activity of (20S)-1α-hydroxy-2α-methyl-19-nor-vitamin D3 and (20S)-1α-hydroxy-2β-methyl-19-nor-vitamin D3.
(§1) Male, weanling Sprague-Dawley rats were placed on Diet 11 (0.47% Ca) diet+AEK for 11 days, followed by Diet 11 (0.02% Ca)+AEK for 31 days. Dosing (i.p.) began 7 days prior to sacrifice. Doses were given on a daily basis, 24 hours apart. The first 10 cm of the intestine was collected for gut transport studies and serum was collected for bone Ca mobilization analysis.

[2] = Intestinal calcium transport in rats on low calcium diet, chronic i.p. doses; format: in vivo, Sprague-Dawley rats; settings: for Ca transport S/M (mean ± SEM): male weanling rats, 0.02% Ca diet, 5 animals; for Activity in stimulating intestinal calcium transport relative to 1,25-(OH)2D3 (in words): summary of Table 1
Description: Intestinal calcium transport was determined as described by Perlman et al. (Biochemistry 29, 190–196, 1990).
as §1

[3] = tested on: HL-60 cells; experiment: Differentiation of HL-60 promyelocytes into monocytes; format: cell-based; settings: FIG. 2
Description: FIG. 2 is a graph illustrating the percent HL-60 cell differentiation as a function of the concentration of (20S)-1α-hydroxy-2α-methyl-19-nor-vitamin D3, (20S)-1α-hydroxy-2β-methyl-19-nor-vitamin D3, and of 1α,25-dihydroxyvitamin D3.
The differentation of HL-60 promyelocytic into monoctyes was determined as described by Ostrem et al. (J. Boil. Chem. 262, 14164–14171, 1987).

[4] = biological target: T1, vitamin D pig intestinal nuclear receptor (Sus scrofa, UniProt A3RGC1); experiment: Competitive binding of [3H]-1,25-(OH)2-D3 to the porcine intestinal vitamin D receptor; settings: FIG. 1; for Binding to the vitamin D receptor (in words): compared with 1,25-(OH)2D3
T1 construct: from tissue; host or cells: pig intestine (nuclear receptor preparation)
T1 sequence (A3RGC1 1-427): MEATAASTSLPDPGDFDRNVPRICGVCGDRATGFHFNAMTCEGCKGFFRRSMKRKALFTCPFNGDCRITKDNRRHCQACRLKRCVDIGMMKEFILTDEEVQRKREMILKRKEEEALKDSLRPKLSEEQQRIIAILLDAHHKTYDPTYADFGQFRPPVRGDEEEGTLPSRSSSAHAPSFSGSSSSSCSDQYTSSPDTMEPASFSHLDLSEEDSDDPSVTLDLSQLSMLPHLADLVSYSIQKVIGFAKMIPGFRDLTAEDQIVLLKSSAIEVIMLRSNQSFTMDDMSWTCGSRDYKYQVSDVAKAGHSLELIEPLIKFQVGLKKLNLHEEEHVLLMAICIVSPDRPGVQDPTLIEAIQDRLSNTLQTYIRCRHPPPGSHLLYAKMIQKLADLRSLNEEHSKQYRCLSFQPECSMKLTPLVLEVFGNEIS
Description: FIG. 1 is a graph illustrating the relative activity of (20S)-1α-hydroxy-2α-methyl-19-nor-vitamin D3, (20S)-1α-hydroxy-2β-methyl-19-nor-vitamin D3, and 1α,25-dihydroxyvitamin D3 to compete for binding of [^3H]-1,25-(OH)2-D3 to the vitamin D pig intestinal nuclear receptor; and
Competitive binding of the analogs to the porcine intestinal receptor was carried out by the method described by Dame et al. (Biochemistry 25, 4523–4534, 1986).

[5] = 130 pmol/day i.p. daily for 7 days
[6] = 260 pmol/day i.p. daily for 7 days

Binding to the vitamin D receptor (in words) [4] | Binding to the vitamin D receptor (in words) ([4]; listed as 2β-methyl-(20S)-1α-hydroxyvitamin D3) | Affinity for the vitamin D receptor, fold less than 1α,25-dihydroxyvitamin D3 ([4]; relative to 1,25-(OH)2D3) | SMILES | Serum Ca (mean ± SEM) [1, 5] | Serum Ca (mean ± SEM) [1, 6] | Ca transport S/M (mean ± SEM) [2, 5] | Ca transport S/M (mean ± SEM) [2, 6] | Bone calcium mobilization activity relative to 1,25-(OH)2D3 (in words) [1] | Activity in stimulating intestinal calcium transport relative to 1,25-(OH)2D3 (in words) [2] | Potency on HL-60 differentiation relative to 1,25-(OH)2D3 (in words) [3] | HL-60 differentiation activity, times less active than 1,25(OH)2D3 ([3]; relative to 1,25(OH)2D3) | Potency on HL-60 differentiation relative to 1,25-(OH)2D3 (in words) ([3]; listed as (20S)-1α-Hydroxy-2α-methyl-19-nor-vitamin D3) | Potency on HL-60 differentiation relative to 1,25-(OH)2D3 (in words) ([3]; listed as (20S)-1α-hydroxy-2α-methyl-19-nor-vitamin D3)
– | – | – | C=C1/C(=C\C=C2/CCC[C@]3(C)[C@@H]([C@H](C)CCCC(C)(C)O)CC[C@@H]23)C[C@@H](O)C[C@@H]1O [1α,25-(OH)2D3, 1α,25-dihydroxyvitamin D3, reference compound] | 5.0 ± 0.05 | 5.5 ± 0.16 | 5.3 ± 0.42 | 6.5 ± 0.84 | – | – | – | – | – | –
much less active than 1,25(OH)2D3 | does not bind | – | CC(C)CCC[C@H](C)C1CCC2/C(=C/C=C3C[C@@H](O)C(C)[C@H](O)C3)CCC[C@@]21C (stereo partly drawn) [(20S)-1α-(OH)-2β-methyl-19-nor-D3, (20S)-1α-hydroxy-2β-methyl-19-nor-vitamin D3] | 4.8 ± 0.04 | 5.1 ± 0.04 | 6.8 ± 0.73 | 5.7 ± 0.45 | about the same as 1,25-(OH)2D3 | about the same as 1,25-(OH)2D3 | only slightly less active than 1,25-(OH)2D3 | 100 times | – | –
much less active than 1,25(OH)2D3 | – | 100 fold | CC(C)CCC[C@H](C)C1CCC2/C(=C/C=C3C[C@@H](O)C(C)[C@H](O)C3)CCC[C@@]21C (stereo partly drawn) [(20S)-1α-(OH)-2α-methyl-19-nor-D3, (20S)-1α-hydroxy-2α-methyl-19-nor-vitamin D3] | 10.0 ± 0.20 | 12.7 ± 0.15 | 8.6 ± 0.90 | 6.7 ± 0.68 | higher bone calcium mobilization activity, as compared to 1,25-(OH)2D3 | high activity relative to that of 1,25-(OH)2D3 | – | – | only slightly less active than 1,25-(OH)2D3 | almost as potent as 1,25-(OH)2D3
